Data as given in patent US6632831B2, “Branched chain amino acid-dependent aminotransferase inhibitors and their use in the treatment of neurodegenerative diseases” (Pfizer Inc., priority 2001, dated 2003).
Values joined by “and” are separate entries in the source; they are usually repeats but may differ in a detail not shown here. Identical values can stand only once.

Tests used:
[1] = target: T1, human Branched Chain Amino Acid Aminotransferase cytosolic form (hBCATc) (Homo sapiens, UniProt P54687); experiment: In vitro coupled enzyme assay, hBCATc; type: biochemical; details: 37° C.; for IC50: 25 mM phosphate buffer pH 7.8, coupled glutamate dehydrogenase assay, read-out: hBCATc I50
T1 construct: inferred from purification on a Ni-charged chelating column with imidazole elution; made in house; host or cells: E. coli BL21(DE3)
T1 sequence (P54687 1-386): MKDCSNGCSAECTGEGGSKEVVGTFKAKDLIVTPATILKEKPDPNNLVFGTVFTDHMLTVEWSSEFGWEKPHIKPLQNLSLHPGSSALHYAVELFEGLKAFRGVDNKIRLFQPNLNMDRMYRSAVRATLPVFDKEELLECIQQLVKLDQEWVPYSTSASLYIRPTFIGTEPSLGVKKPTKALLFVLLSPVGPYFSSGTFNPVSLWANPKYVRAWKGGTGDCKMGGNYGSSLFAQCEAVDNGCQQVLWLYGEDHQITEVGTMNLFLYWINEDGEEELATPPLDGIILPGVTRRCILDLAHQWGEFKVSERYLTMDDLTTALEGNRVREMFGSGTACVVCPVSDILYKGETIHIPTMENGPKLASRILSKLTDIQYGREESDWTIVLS
Experimental: In vitro enzyme assay—human Branched Chain Amino Acid Aminotransferase cytosolic form (hBCATc) and mitochondrial form (hBCATm) were assayed at 37° C. in 25 mM phosphate buffer pH 7.8. In addition, 2 mM DTT and 12.5 mM EDTA were added to the assay mixture. A coupling enzyme assay was used to monitor the production of glutamate. The formation of NADH from NAD+at […] was followed on a 96-well plate Molecular Devices plate reader. The following components were used in this coupled assay: 4 mM ADP, 1 mM NAD+, 750 μM L-Leucine, 500 μM (α-ketoglutarate, 10 μM pyridoxal phosphate, 1 unit glutamate dehydrogenase, and 1.25 μg of the appropriate BCAT enzyme. Inhibitions by compounds were assayed by adding various concentrations to this coupled assay procedure as a DMSO stock up to a 5% v/v DMSO/buffer ratio. Data is shown in Table 1.
Enzyme Preparation—humanBCATc was expressed in BL21(DE3) cells. A growing culture of cells was induced with 1 mM IPTG at room temperature overnight. These cells were harvested by centrifugation at 10,000 g for 20 minutes. The supernatant was discarded, and the cells were stored at −80° C. until needed. The protein was purified by the following method. The cell paste was resuspended in extraction buffer (0.1 M phosphate, pH 8.0, with 0.01 M Tris-HCL and 5 mM TCEP and then lysed on a French Press at 1000 psi. The lysate was centrifuged at 10,000 g for 15 minutes, and the pellet was discarded. The supernatant was loaded onto a Hitrap Chelating column previously charged with 0.1 M NiSO4 and washed with 3 to 4 column volumes of extraction buffer. The column was then washed with 0.01 Tris, pH 7.5, 10% glycerol, 150 mM NaCl, 5 mM TCEP for two column volumes. The column was then further washed with two column volumes of 0.1 M phosphate, pH 6.0, 0.01 M Tris, 10% glycerol and 750 mM NaCl. Finally, the column was washed with two column volumes of the same buffer plus 50 mM imidazole. The BCAT enzyme was then eluted with the same buffer but with 350 mM imidazole. The eluant was then dialyzed overnight against 10 mM phosphate buffer pH 8.0, 10% glycerol, and 5 mM TCEP. The dialyzed protein was then loaded onto a Q-sepharose column and eluted using a salt gradient. Active fractions were collected and further purified on a Superose-12 column to yield pure BCAT protein.

Compound | melting point [°C] | IC50 [1] | hBCATc Inhibit % @ 20 μM ([1]; @ 20 μM compound, pH 7.8 coupled assay)
COC(=O)/C=C1\SC(Nc2c(Cl)cccc2Cl)=NC1=O (hydrate or solvate) [Example 1, [2-(2,6-Dichloro-phenylamino)-4-oxo-4H-thiazol-5-ylidene]-acetic Acid Methyl Ester] | 189.1 to 189.7 |  | 
CCOC(=O)/C=C1\SC(Nc2c(Cl)cccc2Cl)=NC1=O (hydrate or solvate) [Example 2, [2-(2,6-Dichloro-phenylamino)-4-oxo-4H-thiazol-5-ylidene]-acetic Acid Ethyl Ester] | 185 to 185.8 |  | 
CC(C)(C)OC(=O)/C=C1\SC(Nc2c(Cl)cccc2Cl)=NC1=O (hydrate or solvate) [Example 3, [2-(2,6-Dichloro-phenylamino)-4-oxo-4H-thiazol-5-ylidene]-acetic Acid Tert-butyl Ester] | > 230 |  | 
COC(=O)/C=C1\SC(Nc2ccccc2C)=NC1=O (hydrate or solvate) [Example 4, [2-(2-Methyl-phenylamino)-4-oxo-4H-thiazol-5-ylidene]-acetic Acid Methyl Ester] | 200.7 to 201.2 |  | 
CNC(=O)/C=C1\SC(Nc2c(Cl)cccc2Cl)=NC1=O (hydrate or solvate) [Example 6, [2-(2,6-Dichloro-phenylamino)-4-oxo-4H-thiazol-5-ylidene]-N-methyl-acetamide] | > 230 |  | 
CCCNC(=O)/C=C1\SC(Nc2c(Cl)cccc2Cl)=NC1=O (hydrate or solvate) [Example 8, [2-(2,6-Dichloro-phenylamino)-4-oxo-4H-thiazol-5-ylidene]-N-propyl-acetamide] | > 230 |  | 
O=C(O)/C=C1\SC(Nc2c(Cl)cccc2Cl)=NC1=O [Example 5, [2-(2,6-Dichloro-phenylamino)-4-oxo-4H-thiazol-5-ylidene]-acetic Acid] | > 230 | 18.6 µM and 13.1 µM | 
COC(=O)/C=C1\SC(Nc2ccc(Cl)cc2Cl)=NC1=O [Example 11, [2-(2,4-Dichloro-phenylamino)-4-oxo-4H-thiazol-5-ylidene]-acetic Acid Methyl Ester] | 211.6 to 212.3 | 30.1 µM | 
COC(=O)/C=C1\SC(Nc2cc(Cl)ccc2Cl)=NC1=O [Example 12, [2-(2,5-Dichloro-phenylamino)-4-oxo-4H-thiazol-5-ylidene]-acetic Acid Methyl Ester] | 198.8 to 199.4 | 27.6 µM | 
COC(=O)/C=C1\SC(Nc2cccc(Cl)c2Cl)=NC1=O [Example 13, [2-(2,3-Dichloro-phenylamino)-4-oxo-4H-thiazol-5-ylidene]-acetic Acid Methyl Ester] | 204 to 204.3 | 18.7 µM | 
N-(1-Benzyl-pyrrolidin-3-yl)-2-[2-(2,6-dichloro-phenylamino)-4-oxo-4H-thiazol-5-ylidene]-N-methyl-acetamide [Example 36] |  |  | Inhibit 29% @ 20 μM

More lines, now with the values ahead:

melting point [°C] | IC50 [1] | hBCATc Inhibit % @ 20 μM ([1]; @ 20 μM compound, pH 7.8 coupled assay) | Compound
> 250 |  |  | CCNC(=O)/C=C1\SC(Nc2c(Cl)cccc2Cl)=NC1=O (hydrate or solvate) [Example 7, [2-(2,6-Dichloro-phenylamino)-4-oxo-4H-thiazol-5-ylidene]-N-ethyl-acetamide]
204.8 to 205.6 |  |  | CONC(=O)/C=C1\SC(Nc2c(Cl)cccc2Cl)=NC1=O (hydrate or solvate) [Example 10, [2-(2,6-Dichloro-phenylamino)-4-oxo-4H-thiazol-5-ylidene]-N-methoxy-acetamide]
204.8 to 205.6 | 33 µM and 24 µM |  | O=C(/C=C1\SC(Nc2c(Cl)cccc2Cl)=NC1=O)NCc1ccccc1 [Example 9, [2-(2,6-Dichloro-phenylamino)-4-oxo-4H-thiazol-5-ylidene]-N-benzyl-acetamide]
241.3 to 241.7 | 16.6 µM |  | COC(=O)/C=C1\SC(Nc2c(Cl)cc(Cl)cc2Cl)=NC1=O [Example 14, [2-(2,4,6-Trichloro-phenylamino)-4-oxo-4H-thiazol-5-ylidene]-acetic Acid Methyl Ester]
194 to 194.6 | 19.5 µM |  | COC(=O)/C=C1\SC(Nc2ccccc2Cl)=NC1=O [Example 15, [2-(2-Chloro-phenylamino)-4-oxo-4H-thiazol-5-ylidene]-acetic Acid Methyl Ester]
